Values after ≈ are worked out from the molar mass of the structure shown. Where two headings read alike, the source gives them in different places.
Assays:
[1] = tested on: Mycobacterium tuberculosis H37Rv; assay: Microplate Alamar Blue assay (MABA) MIC, M. tuberculosis; assay type: cell-based; details: read-out: MIC Mycobacterium tuberculosis H37Rv
Excerpt: (§1) Minimal inhibitory concentrations (MICs) in Mycobacterium tuberculosis H37Rv and Mycobacterium avium ATCC 25291 were quantified using microplate Alamar Blue assays as described (MABA; [Collins, L. & Franzblau, S. (1997) Microplate Alamar Blue assay versus BACTEC 460 system for high-throughput screening of compounds against Mycobacterium tuberculosis and Mycobacterium avium. Antimicrob. Agents Chemother. 41, 1004-1009]).

[2] = tested on: Mycobacterium avium ATCC 25291; assay: Microplate Alamar Blue assay (MABA) MIC, M. avium; assay type: cell-based; details: ATCC25291, M. avium ATCC 25291
Excerpt: as §1

[3] = tested on: Mycobacterium smegmatis ATCC 19420; assay: Broth microdilution MIC, M. smegmatis; assay type: cell-based; details: Mycolicibacterium smegmatis
Excerpt: (§2) MICs in Mycobacterium smegmatis ATCC 19420 and Mycobacterium smegmatis ATCC 19420 derivatives were quantified using broth microdilution assays as described [Clinical and Laboratory Standards Institute (CLSI/NCCLS) (2009) Methods for Dilution Antimicrobial Susceptibility Tests for Bacteria That Grow Aerobically; Approved Standard, Eighth Edition. CLIS Document M07-A8 (CLIS, Wayne Pa.)].

[4] = tested on: rifampin-resistant mutants, derivatives of M. smegmatis ATCC19420; assay: MICs in rifampin-resistant mutants (cross-resistance levels); assay type: cell-based, Mycobacterium smegmatis
Excerpt: as §2

[5] = tested on: Vero E6 ATCC CRL1586 cells; assay: Mammalian-cell cytotoxicity, minimal cytotoxic concentration (CellTiter96); assay type: cell-based
Experimental: Minimal cytotoxic concentrations (MCCs) against mammalian cells in culture were determined using Vero E6 ATCC CRL1586 cells and the CellTiter96 assay kit (Promega, Inc.). […]

[6] = biological target: Mycobacterium tuberculosis RNA polymerase (Mycobacterium tuberculosis, UniProt P9WGY7+P9WGY9); assay: Run-off transcription assay with Mycobacterium tuberculosis RNA polymerase (radiochemical); assay type: biochemical
Sequence of Mycobacterium tuberculosis RNA polymerase (P9WGZ1 whole entry, the tested form may be a part): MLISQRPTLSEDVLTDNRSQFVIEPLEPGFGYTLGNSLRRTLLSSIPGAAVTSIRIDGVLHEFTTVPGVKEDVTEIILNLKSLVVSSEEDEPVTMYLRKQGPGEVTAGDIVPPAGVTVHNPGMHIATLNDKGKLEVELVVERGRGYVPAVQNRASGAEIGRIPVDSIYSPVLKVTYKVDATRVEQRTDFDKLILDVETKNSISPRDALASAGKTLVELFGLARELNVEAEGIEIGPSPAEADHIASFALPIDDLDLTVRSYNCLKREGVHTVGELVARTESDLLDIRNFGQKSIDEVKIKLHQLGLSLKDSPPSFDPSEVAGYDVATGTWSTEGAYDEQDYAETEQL
Sequence of Mycobacterium tuberculosis RNA polymerase (P9WGY5 whole entry, further chain, the tested form may be a part): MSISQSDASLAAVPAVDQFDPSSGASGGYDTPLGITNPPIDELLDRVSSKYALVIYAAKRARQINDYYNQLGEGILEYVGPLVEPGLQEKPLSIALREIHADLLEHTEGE
Sequence of Mycobacterium tuberculosis RNA polymerase (P9WGY9 whole entry, the tested form may be a part): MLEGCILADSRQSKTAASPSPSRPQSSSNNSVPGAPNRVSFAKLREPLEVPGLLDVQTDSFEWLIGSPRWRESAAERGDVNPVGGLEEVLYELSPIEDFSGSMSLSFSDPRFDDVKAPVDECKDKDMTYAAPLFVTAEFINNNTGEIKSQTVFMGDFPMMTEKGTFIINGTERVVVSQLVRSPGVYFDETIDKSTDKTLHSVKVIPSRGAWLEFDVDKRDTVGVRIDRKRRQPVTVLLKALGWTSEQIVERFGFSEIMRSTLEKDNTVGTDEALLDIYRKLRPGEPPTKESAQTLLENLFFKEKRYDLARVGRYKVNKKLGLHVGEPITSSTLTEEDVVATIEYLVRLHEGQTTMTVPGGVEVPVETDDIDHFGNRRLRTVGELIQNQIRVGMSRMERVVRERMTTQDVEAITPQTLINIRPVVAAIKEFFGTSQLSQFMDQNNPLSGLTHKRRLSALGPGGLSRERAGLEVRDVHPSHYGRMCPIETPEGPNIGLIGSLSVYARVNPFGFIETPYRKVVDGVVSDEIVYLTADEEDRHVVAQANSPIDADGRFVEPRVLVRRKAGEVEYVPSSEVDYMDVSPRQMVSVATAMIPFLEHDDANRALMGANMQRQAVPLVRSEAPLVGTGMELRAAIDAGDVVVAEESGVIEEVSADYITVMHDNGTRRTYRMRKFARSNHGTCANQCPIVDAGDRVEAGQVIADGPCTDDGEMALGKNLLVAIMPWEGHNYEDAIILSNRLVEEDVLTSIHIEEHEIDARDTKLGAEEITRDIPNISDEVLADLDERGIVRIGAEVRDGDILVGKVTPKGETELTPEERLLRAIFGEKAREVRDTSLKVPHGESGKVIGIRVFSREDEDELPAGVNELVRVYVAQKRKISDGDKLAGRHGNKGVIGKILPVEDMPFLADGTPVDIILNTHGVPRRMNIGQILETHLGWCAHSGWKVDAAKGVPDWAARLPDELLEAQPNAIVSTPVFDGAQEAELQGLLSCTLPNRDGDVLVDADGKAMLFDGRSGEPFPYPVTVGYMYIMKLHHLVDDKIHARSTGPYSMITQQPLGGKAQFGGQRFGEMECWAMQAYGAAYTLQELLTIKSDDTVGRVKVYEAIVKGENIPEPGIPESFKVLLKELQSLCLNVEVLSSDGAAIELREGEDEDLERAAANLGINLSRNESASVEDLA
Sequence of Mycobacterium tuberculosis RNA polymerase (P9WGI1 whole entry, further chain, the tested form may be a part): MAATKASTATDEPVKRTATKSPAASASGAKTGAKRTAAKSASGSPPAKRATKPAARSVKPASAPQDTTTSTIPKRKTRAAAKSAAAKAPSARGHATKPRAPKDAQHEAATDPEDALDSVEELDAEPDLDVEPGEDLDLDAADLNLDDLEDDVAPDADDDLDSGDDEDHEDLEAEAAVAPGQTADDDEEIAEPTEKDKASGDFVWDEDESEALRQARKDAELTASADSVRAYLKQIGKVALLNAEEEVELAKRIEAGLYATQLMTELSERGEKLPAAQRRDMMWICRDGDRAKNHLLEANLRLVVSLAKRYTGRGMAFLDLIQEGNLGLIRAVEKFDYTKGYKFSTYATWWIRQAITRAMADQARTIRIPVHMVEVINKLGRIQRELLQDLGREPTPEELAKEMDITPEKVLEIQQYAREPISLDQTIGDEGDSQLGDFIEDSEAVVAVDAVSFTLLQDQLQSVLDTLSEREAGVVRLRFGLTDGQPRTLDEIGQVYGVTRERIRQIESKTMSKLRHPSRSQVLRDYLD
Sequence of Mycobacterium tuberculosis RNA polymerase (P9WGY7 whole entry, the tested form may be a part): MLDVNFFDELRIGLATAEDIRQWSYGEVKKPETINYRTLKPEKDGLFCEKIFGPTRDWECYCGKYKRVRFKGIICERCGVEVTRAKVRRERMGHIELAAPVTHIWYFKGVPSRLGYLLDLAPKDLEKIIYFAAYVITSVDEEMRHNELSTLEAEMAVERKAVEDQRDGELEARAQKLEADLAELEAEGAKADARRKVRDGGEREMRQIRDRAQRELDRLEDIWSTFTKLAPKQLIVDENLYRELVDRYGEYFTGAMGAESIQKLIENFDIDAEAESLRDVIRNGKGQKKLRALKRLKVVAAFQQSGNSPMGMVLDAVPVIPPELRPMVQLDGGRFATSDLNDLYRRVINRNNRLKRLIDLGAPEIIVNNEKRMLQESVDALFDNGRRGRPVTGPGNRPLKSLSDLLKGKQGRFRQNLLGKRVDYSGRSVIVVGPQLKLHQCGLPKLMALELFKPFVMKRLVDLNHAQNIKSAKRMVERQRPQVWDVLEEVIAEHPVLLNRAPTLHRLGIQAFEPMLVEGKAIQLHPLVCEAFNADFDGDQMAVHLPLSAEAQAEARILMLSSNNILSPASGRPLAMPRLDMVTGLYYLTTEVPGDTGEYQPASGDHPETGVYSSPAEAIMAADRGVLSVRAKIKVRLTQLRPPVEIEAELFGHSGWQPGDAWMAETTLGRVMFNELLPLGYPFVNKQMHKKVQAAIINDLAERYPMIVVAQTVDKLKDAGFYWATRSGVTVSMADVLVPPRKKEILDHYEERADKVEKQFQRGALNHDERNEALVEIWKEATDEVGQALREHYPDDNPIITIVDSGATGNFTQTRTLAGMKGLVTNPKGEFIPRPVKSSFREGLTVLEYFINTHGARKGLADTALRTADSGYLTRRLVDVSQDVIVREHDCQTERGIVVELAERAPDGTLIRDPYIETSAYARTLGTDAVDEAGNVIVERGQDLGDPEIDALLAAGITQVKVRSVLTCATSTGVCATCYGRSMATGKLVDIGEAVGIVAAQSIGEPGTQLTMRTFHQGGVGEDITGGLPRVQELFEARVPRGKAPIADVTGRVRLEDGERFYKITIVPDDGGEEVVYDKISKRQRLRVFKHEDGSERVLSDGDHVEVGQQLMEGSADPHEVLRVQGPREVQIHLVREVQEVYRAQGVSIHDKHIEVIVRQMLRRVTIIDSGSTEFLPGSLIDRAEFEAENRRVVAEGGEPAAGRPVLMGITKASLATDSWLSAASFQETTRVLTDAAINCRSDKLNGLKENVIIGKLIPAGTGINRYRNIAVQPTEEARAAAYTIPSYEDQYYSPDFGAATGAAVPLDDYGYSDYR
Experimental: Run-off transcription assays with Mycobacterium tuberculosis RNA polymerase were performed using reaction mixtures containing (10 μl): 0-100 μM test compound, 75 nM Mycobacterium tuberculosis RNA polymerase core enzyme, 300 nM Mycobacterium tuberculosis σ^A, 20 nM 130 bp DNA fragment containing positions −100 to −1 of the bacteriophage […] N25 promoter followed by positions +1 to +30 of the lacUV5-15 promoter of [Mukhopadhyay, J., Kapanidis, A., Mekler, V., Kortkhonjia, E., Ebright, Y., Ebright, R. (2001) Cell 106, 453-463], 25 nM [alpha-^32P]UTP (600 Bq/pmol) for an initial 2 min at 37° C. and 100 μM [alpha-^32P]UTP (6 Bq/pmol) for a subsequent 5 min at 37° C., 100 μM ATP, 100 μM GTP, 100 μM UTP, 100 μM CTP, 40 mM Tris-HCl, pH 8.0, 80 mM NaCl, 5 mM MgCl2, 2.5 mM DTT, and 12.7% glycerol. Reactions were terminated by addition of […] 80% formamide, 10 mM EDTA, 0.04% bromophenol blue, and 0.04% xylene cyanol, followed by heating for 5 min at 90° C. Reaction products were resolved by 15% urea-PAGE, and quantified using a storage-phosphor scanner.

[7] = ATCC19420, M. smegmatis ATCC 19420, read-out: MIC Mycobacterium smegmatis ATCC 19420
[8] = IC50 Mycobacterium tuberculosis RNA polymerase
[9] = radiochemical transcription assays, M. tuberculosis RNA polymerase, read-out: Inhibition of mycobacterial RNA polymerase (IC50s)
[10] = ATCC19420, broth microdilution assays, M. smegmatis ATCC19420, read-out: Inhibition of mycobacterial growth in culture (MICs)

SMILES	MIC [1] [µg/mL]	MIC [2] [µg/mL]	MIC [3, 7] [µg/mL]	cross-resistance of rifampin-resistant mutants to the compound [4]	MCC mammalian cells Vero E6 ATCC CRL1586 [5] [µg/mL]	IC50 [6, 8] [µM]	IC50 [6, 9] [µM]	MIC [3, 10] [µg/mL]
Cc1ccccc1NC(=O)C(Cc1ccccc1)NC(=O)c1ccccn1 (stereo not shown) [II-12]	25 (≈ 69.6 µM)	50 (≈ 139 µM)	3.12 (≈ 8.69 µM)	No rifampin-resistant mutant was found to exhibit cross-resistance	>36	–	–	–
O=C(NC(Cc1ccccc1)C(=O)Nc1cccc2cc[nH]c12)c1ccccc1 (stereo not shown) [II-28]	12.5 (≈ 32.6 µM)	> 50	0.78 (≈ 2.03 µM)	No rifampin-resistant mutant was found to exhibit cross-resistance	13	–	–	–
Cc1ccccc1NC(=O)C(Cc1ccccc1)NC(=O)c1cccc2[nH]ccc12 (stereo not shown) [II-39]	12.5 (≈ 31.4 µM)	12.5 (≈ 31.4 µM)	0.39 (≈ 0.981 µM)	No rifampin-resistant mutant was found to exhibit cross-resistance	36	–	–	–
O=C(NC(Cc1ccccc1)C(=O)Nc1cccc2cccnc12)c1ccccc1 (stereo not shown) [IX-2, N-(1-oxo-3-phenyl-1-(quinolin-8-ylamino)propan-2-yl)benzamide]	> 39	> 50	3.12 (≈ 7.9 µM)	No rifampin-resistant mutant was found to exhibit cross-resistance	>39	–	–	–
O=C(NC(Cc1ccccc1)C(=O)Nc1cccc2cnccc12)c1ccccc1 (stereo not shown) [IX-3, N-(1-(isoquinolin-5-ylamino)-1-oxo-3-phenylpropan-2-yl)benzamide]	3.13 (≈ 7.91 µM)	6.25 (≈ 15.8 µM)	0.195 (≈ 0.493 µM)	No rifampin-resistant mutant was found to exhibit cross-resistance	>40	–	–	–
O=C(NC(Cc1ccccc1)C(=O)Nc1cccc2ncccc12)c1ccccc1 (stereo not shown) [IX-4, N-(1-oxo-3-phenyl-1-(quinolin-5-ylamino)propan-2-yl)benzamide]	12.5 (≈ 31.6 µM)	> 50	0.78 (≈ 1.97 µM)	No rifampin-resistant mutant was found to exhibit cross-resistance	>40	–	–	–
O=C(NC(Cc1ccccc1)C(=O)Nc1cccc2c1OCCO2)c1ccccc1 (stereo not shown) [IX-5, N-(1-((2,3-dihydrobenzo[b][1,4]dioxin-5-yl)amino)-1-oxo-3-phenylpropan-2-yl)benzamide]	6.25 (≈ 15.5 µM)	6.25 (≈ 15.5 µM)	0.39 (≈ 0.969 µM)	No rifampin-resistant mutant was found to exhibit cross-resistance	>40	–	–	–
O=C(NC(Cc1ccc(O)cc1)C(=O)Nc1cccc2c1CCC2)c1ccccc1 (stereo not shown) [IX-14, N-(1-((2,3-dihydro-1H-inden-4-yl)amino)-3-(4-hydroxyphenyl)-1-oxopropan-2-yl)benzamide]	6.25 (≈ 15.6 µM)	12.5 (≈ 31.2 µM)	0.39 (≈ 0.974 µM)	No rifampin-resistant mutant was found to exhibit cross-resistance	>40	–	–	–
O=C(NC(Cc1ccccc1)C(=O)Nc1ccccc1OCF)c1ccccc1 (stereo not shown) [IX-27, N-(1-((2-(fluoromethoxy)phenyl)amino)-1-oxo-3-phenylpropan-2-yl)benzamide]	1.56 (≈ 3.98 µM)	3.12 (≈ 7.96 µM)	0.195 (≈ 0.497 µM)	–	>100	0.99	–	–
COc1ccc(F)cc1NC(=O)C(Cc1ccc(O)cc1)NC(=O)c1ccccc1F (stereo not shown) [IX-204, 2-fluoro-N-(1-((5-fluoro-2-methoxyphenyl)amino)-3-(4-hydroxy-phenyl)-1-oxopropan-2-yl)benzamide]	0.78 (≈ 1.83 µM)	1.56 (≈ 3.66 µM)	0.39 (≈ 0.915 µM)	–	50	0.39	–	–
Cc1ccccc1N[C@@H](Cc1ccccc1)C(=O)Nc1ccccc1 [Nα-(2-methylphenyl)-N-phenyl-phenylalaninamide]	–	–	–	–	–	–	≥ 0.1	≥ 0.3
O=C(Nc1ccccc1F)[C@H](Cc1ccccc1)Nc1ccccc1 [Nα-phenyl-N-(2-fluorophenyl)-phenylalaninamide]	–	–	–	–	–	–	≥ 0.1	≥ 0.3
O=C(Nc1ccncc1)[C@H](Cc1ccccc1)Nc1ccccc1 [Nα-phenyl-N-(4-pyridyl)-phenylalaninamide]	–	–	–	–	–	–	≥ 0.1	≥ 0.3
O=C(Nc1ccccc1)[C@H](Cc1ccccc1)Nc1ccccc1 [Nα-phenyl-N-phenyl-phenylalaninamide]	–	–	–	–	–	–	≥ 0.1	≥ 0.3
